Nine molecules from PMC7982521, “Studies on the Changes of Pharmacokinetics Behaviors of Phytochemicals and the Influence on Endogenous Metabolites After the Combination of Radix Bupleuri and Radix Paeoniae Alba Based on Multi-Component Pharmacokinetics and Metabolomics” (Frontiers in Pharmacology, 2021) can be followed below.

Structures can show the parent of a compound that is named as a salt. Where two headings read alike, the source gives them in different places.

The data set can be described thus: Multi-component pharmacokinetics in rat plasma after oral administration of RB, RPA or RB-RPA extracts (UPLC-HRMS, non-compartmental analysis). It counts as in vivo, Sprague-Dawley rats. The following applies: for AUC0-t / AUC0-∞ / Cmax / t1/2 / tmax / AUC(0-inf) / half-life: rat plasma, mean ± SD, n = 7. On the procedure:
(Beijing, China, No. SCXK2018-0011). […] All rats were free to access the water and food until 12 h before the experiment. The animal study was reviewed and approved by the Experimental Animal Ethical Committee of Modern Research Center for Traditional Chinese Medicine, Shanxi University (animal ethic approval number: SXULL2018018), and all experimental procedures were carried out in accordance with the NIH Guide for the Care and Use of Laboratory Animals. After one week of adaptation, twenty-one rats were divided into three groups randomly, with seven rats in each group: 1) RPA group, were oral administration of Radix Paeoniae Alba extract (45 g-herb/kg); 2) RB group, were oral administration of Radix Bupleuri extract (45 g-herb/kg); 3) RB-RPA group, were oral administration of powder mixture of Radix Bupleuri and Radix Paeoniae Alba extracts (containing 45 g-herb/kg Radix Bupleuri and 45 g-herb/kg Radix Paeoniae Alba). […] Each group received intragastric administration with a volume of 10 ml/kg (rat body weight). […] All rats were free to access the water during the experiment. The blood samples at each time point were collected from seven rats. The blood samples were centrifuged at 4,000 rpm for 10 min and frozen at -80°C until analysis. Using a Thermo-Fisher Dionex UltiMate 3000 UHPLC system coupled with a Q Exactive Orbitrap-MS (Thermo-Fisher, United States) and Xcalibur workstation (Thermo-Fisher Scientific Inc.,Waltham, MA, United States) to acquire UPLC-HRMS raw data. Chromatographic separation of herb extracts and plasma samples was performed on an Acquity UPLC HSS T3 column (2.1 mm × 100 mm, 1.8 μm) maintained at 37°C. The flow rate was 0.2 ml/min and the injection volume was 5 μL. […] Mass spectrometry detection conditions were set as follows: the MS data were acquired under positive and negative ionization modes via heated electrospray ionization (HESI) source. […] The Q Exactive Orbitrap-MS has a fast positive and negative ion switching function, which could switch between positive-negative ion modes during the analysis of the same sample. So, we applied the method of switching ion modes in the detection process to quantify all analytes better. […] UPLC/MS/MS calibration and quantitation data were processed with Xcalibur workstation (Thermo-Fisher Scientific Inc., Waltham, MA, United States). For the eight components with standard reference, calculating their concentrations from the standard curves. For the other 30 components without standard reference, their concentrations were analyzed following the regression equations of homologous compounds ([Qiao et al., 2012]): paeoniflorin for P1 and M1 to M3; methylgallate for M4 to M10; saikosaponin […] and […]; saikosaponin […]; saikosaponin […]; saikosaponin B2 for P11 and M25 to […].

[1] abbreviates: oral RB single extract 45 g-herb/kg.
Setting [2] is: oral RB-RPA mixed extracts (45 g-herb/kg RB + 45 g-herb/kg RPA).
The mark [3] stands for this setting: oral administration of mixed extracts RB-RPA.
[4] abbreviates: oral administration of single extract RPA.
Where [5] appears, read: male, Sprague-Dawley, rat, plasma, po, 45 g/kg, oral RB single extract 45 g-herb/kg.

Consider `C[C@H]1O[C@@H](O[C@@H]2CC[C@@]3(C)[C@@H](CC[C@]4(C)[C@@H]3C=C[C@]35OC[C@@]6(CCC(C)(C)C[C@H]63)[C@@H](O)C[C@]54C)[C@@]2(C)CO)[C@H](O)[C@@H](O)[C@H]1O` [Prosaikogenin G], for which, under setting [1], the AUC0-t was determined as 10.10 ± 4.96 ng·h/mL, the “AUC0-∞” value was 11.33 ± 5.65 ng·h/mL, the Cmax amounted to 5.81 ± 2.73 ng/mL and the t1/2 came out at 1.48 ± 0.50 h. The same molecule came in with a tmax under setting [1] of 47.4 ± 6 min. Under setting [2], the AUC0-t is 11.50 ± 5.88 ng·h/mL, the “AUC0-∞” value came to 12.94 ± 6.57 ng·h/mL, the Cmax was determined as 6.08 ± 3.17 ng/mL and the t1/2 is 1.48 ± 0.63 h. Besides, the tmax under setting [2] was 45 ± 9.6 min.
In the case of `O=S(=O)(O)Oc1cccc(O)c1O` [Pyrogallol sulfate], under setting [3], the AUC0-t worked out at 217.62 ± 126.82 ng·h/mL, the “AUC0-∞” value worked out at 257.66 ± 175.61 ng·h/mL, the Cmax came to 24.16 ± 13.26 ng/mL and the t1/2 amounted to 7.54 ± 3.63 h. In addition, the tmax under setting [3] worked out at 105 ± 36.6 min. For the same molecule, under setting [4], the AUC0-t was determined as 164.21 ± 79.60 ng·h/mL, the “AUC0-∞” value amounted to 187.63 ± 91.25 ng·h/mL, the Cmax was determined as 18.42 ± 5.81 ng/mL and the t1/2 was determined as 7.72 ± 3.81 h. Also, under setting [4], the tmax was found to be 150 ± 46.8 min.
For `CC1(C)CC[C@@]2(CO)C(=C3C=C[C@@H]4[C@@]5(C)CC[C@H](O)[C@@](C)(CO)[C@@H]5CC[C@@]4(C)[C@]3(C)C[C@H]2O)C1` [Saikogenin D], under setting [1], the AUC0-t was determined as 81.39 ± 36.37 ng·h/mL, the “AUC0-∞” value was 85.33 ± 40.21 ng·h/mL, the Cmax was 16.51 ± 8.25 ng/mL and the t1/2 was 5.10 ± 1.21 h. Besides, the tmax under setting [1] is 70.2 ± 15.6 min. In addition, under setting [2], the AUC0-t was 131.78 ± 59.75 ng·h/mL, the “AUC0-∞” value was 141.32 ± 65.28 ng·h/mL, the Cmax was determined as 19.75 ± 10.49 ng/mL and the t1/2 stood at 5.78 ± 2.37 h. The tmax under setting [2] turned out to be 55.2 ± 12 min.
In the case of `CC1(C)CC[C@]23CO[C@@]4(C=C[C@@H]5[C@@]6(C)CC[C@H](O)C(C)(C)[C@@H]6CC[C@@]5(C)[C@]4(C)C[C@@H]2O)[C@@H]3C1` [Saikogenin E], under setting [1], the AUC0-t is 34.53 ± 9.88 ng·h/mL, the “AUC0-∞” value was 38.46 ± 9.92 ng·h/mL, the peak concentration (Cmax) stood at 12.31 ± 5.03 ng/mL and the t1/2 was 3.40 ± 1.47 h. This molecule also registered a tmax under setting [1] of 45 ± 9.6 min. Further, under setting [2], the AUC0-t came to 40.24 ± 15.68 ng·h/mL, the “AUC0-∞” value is 45.24 ± 14.83 ng·h/mL, the maximum concentration (Cmax) was determined as 13.41 ± 6.28 ng/mL and the t1/2 came to 3.99 ± 2.19 h. In addition, the tmax under setting [2] is 47.4 ± 6 min.
With `CC1(C)CC[C@]23CO[C@@]4(C=C[C@@H]5[C@@]6(C)CC[C@H](O)[C@@](C)(CO)[C@@H]6CC[C@@]5(C)[C@]4(C)C[C@@H]2O)[C@@H]3C1` [Saikogenin F], under setting [1], the AUC0-t was 156.14 ± 83.93 ng·h/mL, the “AUC0-∞” value was determined as 159.01 ± 82.32 ng·h/mL, the highest concentration (Cmax) turned out to be 30.25 ± 13.93 ng/mL and the t1/2 was 4.01 ± 1.88 h. This molecule showed a tmax under setting [1] of 62.4 ± 15 min. Moreover, under setting [2], the AUC0-t was 301.08 ± 199.77 ng·h/mL, the “AUC0-∞” value amounted to 347.02 ± 174.43 ng·h/mL, the peak concentration (Cmax) stood at 34.09 ± 17.25 ng/mL and the t1/2 was 6.80 ± 2.11 h. Moreover, the tmax under setting [2] came out at 70.2 ± 15.6 min.
In the case of `CC1(C)CC[C@]23CO[C@@]4(C=C[C@@H]5[C@@]6(C)CC[C@H](O)[C@@](C)(CO)[C@@H]6CC[C@@]5(C)[C@]4(C)C[C@H]2O)[C@@H]3C1` [Saikogenin G], under setting [1], the AUC0-t stood at 50.01 ± 16.60 ng·h/mL, the “AUC0-∞” value stood at 57.20 ± 17.81 ng·h/mL, the Cmax came to 11.26 ± 4.74 ng/mL and the t1/2 came out at 3.96 ± 1.59 h. Also, the tmax under setting [1] is 45 ± 0 min. Under setting [2], the AUC0-t was 88.79 ± 41.87 ng·h/mL, the “AUC0-∞” value amounted to 99.59 ± 41.70 ng·h/mL, the maximum concentration (Cmax) stood at 12.67 ± 4.42 ng/mL and the t1/2 came to 6.53 ± 2.21 h. For the same molecule, the tmax under setting [2] stood at 42.6 ± 6 min.
Consider `C[C@H]1O[C@@H](O[C@H]2CC[C@@]3(C)[C@@H](CC[C@]4(C)[C@@H]3C=C[C@]35OC[C@@]6(CCC(C)(C)C[C@H]63)[C@@H](O)C[C@]54C)[C@]2(C)CO)[C@H](O)[C@@H](O[C@@H]2O[C@H](CO)[C@@H](O)[C@H](O)[C@H]2O)[C@H]1O` [Saikosaponin A], for which the AUC(0-inf) under setting [5] came out at 104 ± 38.6 ng·h/mL and the total exposure AUC(0-inf) (male, Sprague-Dawley, rat, plasma, po, 45 g/kg, oral RB-RPA mixed extracts (45 g-herb/kg RB + 45 g-herb/kg RPA)) came out at 176 ± 45.9 ng·h/mL. Also, the half-life under setting [5] is 128 ± 25.8 min and the half-life (male, Sprague-Dawley, rat, plasma, po, oral RB-RPA mixed extracts (45 g-herb/kg RB + 45 g-herb/kg RPA)) was 213 ± 34.2 min. The AUC0-t runs as follows: (male, Sprague-Dawley, rat, plasma, po, 45 g/kg, oral RB single extract 45 g-herb/kg, read-out: AUC0-t) 102 ± 38.5 ng·h/mL; (male, Sprague-Dawley, rat, plasma, po, oral RB-RPA mixed extracts (45 g-herb/kg RB + 45 g-herb/kg RPA), read-out: AUC0-t) 170 ± 48.2 ng·h/mL. The Cmax was 68.4 ± 16.9 ng/mL (male, Sprague-Dawley, rat, plasma, po, 45 g/kg, oral RB single extract 45 g-herb/kg, read-out: Cmax) and 46.5 ± 12.4 ng/mL (male, Sprague-Dawley, rat, plasma, po, 45 g/kg, oral RB-RPA mixed extracts (45 g-herb/kg RB + 45 g-herb/kg RPA), read-out: Cmax). Also, the tmax runs as follows: (male, Sprague-Dawley, rat, plasma, po, 45 g/kg, oral RB single extract 45 g-herb/kg, read-out: tmax) 32.4 ± 6 min; (male, Sprague-Dawley, rat, plasma, po, oral RB-RPA mixed extracts (45 g-herb/kg RB + 45 g-herb/kg RPA), read-out: tmax) 37.8 ± 12.6 min. Besides, the “change of t1/2 after combination” value (rat, oral RB-RPA group vs single herbal group) was “longer”.
For the molecule `C[C@H]1O[C@@H](O[C@H]2CC[C@@]3(C)[C@@H](CC[C@]4(C)[C@@H]3C=CC3=C5CC(C)(C)CC[C@]5(CO)[C@H](O)C[C@]34C)[C@]2(C)CO)[C@H](O)[C@@H](O[C@@H]2O[C@H](CO)[C@@H](O)[C@H](O)[C@H]2O)[C@H]1O` [Saikosaponin B2], under setting [1], the AUC0-t was 65.14 ± 19.35 ng·h/mL, the “AUC0-∞” value was 67.92 ± 19.39 ng·h/mL, the Cmax amounted to 22.33 ± 2.99 ng/mL and the t1/2 is 2.70 ± 1.52 h. Moreover, the tmax under setting [1] was found to be 40.2 ± 7.8 min. Under setting [2], the AUC0-t turned out to be 98.63 ± 18.36 ng·h/mL, the “AUC0-∞” value amounted to 104.39 ± 23.28 ng·h/mL, the peak concentration (Cmax) was found to be 28.19 ± 5.50 ng/mL and the t1/2 came to 2.89 ± 1.14 h. Also, under setting [2], the tmax worked out at 49.8 ± 12 min.
For the molecule `C[C@@H]1O[C@@H](O[C@@H]2[C@H](O)[C@@H](O)[C@H](O[C@H]3CC[C@@]4(C)C(CC[C@]5(C)C4C=C[C@]46OC[C@@]7(CCC(C)(C)CC74)[C@@H](O)C[C@]65C)C3(C)C)O[C@@H]2CO[C@@H]2O[C@H](CO)[C@@H](O)[C@H](O)[C@H]2O)[C@H](O)[C@H](O)[C@H]1O` (stereo partly shown) [Saikosaponin C], under setting [1], the AUC0-t was found to be 38.82 ± 9.84 ng·h/mL, the “AUC0-∞” value worked out at 42.15 ± 8.73 ng·h/mL, the Cmax is 31.12 ± 11.08 ng/mL and the t1/2 was 2.07 ± 1.12 h. Further, the tmax under setting [1] was found to be 30 ± 9.6 min. In addition, under setting [2], the AUC0-t was 51.33 ± 16.19 ng·h/mL, the “AUC0-∞” value was found to be 53.67 ± 16.16 ng·h/mL, the Cmax was found to be 20.63 ± 5.65 ng/mL and the t1/2 came out at 2.53 ± 1.54 h. The tmax under setting [2] came to 39.6 ± 18 min.
